This is an account of results in patent publication US4912133A, “BU-3862T antitumor antibiotic” (priority 1988, dated 1990).

The subject of data set [1] is HCT-116 (human colon carcinoma) cells. Briefly: in vitro cytotoxicity against HCT-116 (neutral red staining, 72 hours). Type of data set: cell-based. How it is done:
(§1) BU-3862T and diacetyl-, dihydro- and tetrahydro-BU-3862T were tested for in vitro cytotoxicity against several murine and human tumor cell lines and/or for in vivo antitumor activity in mice. […] B16-F10 (murine melanoma), P388 (murine leukemia), L1210 (murine leukemia) and Moser (human colorectal carcinoma) cells were grown to the logarithmic phase in enriched Eagle minimum essential medium (MEM) supplemented with fetal calf serum (FCS, 10%) and kanamycin (60 mcg/ml), and HCT-116 (human colon carcinoma) cells in Maccoy's 5A medium supplemented with FCS (10%), penicillin (100 u/ml) and streptomycin (100 mcg/ml), harvested and inoculated into wells of the 96- or 24-well tissue culture plate with test materials at the concentrations of 1.5×10^5, 1.2×10^4,1.2×10^4, 2.5×10^5 and 3.0×10^5 cells/ml, respectively. They were incubated at 37° C. in humidified atmosphere of 5% CO2 and 95% air for 72 hours. The cytotoxic activities against B16-F10, Moser and HCT-116 cells were colorimetrically determined at 540 nm after staining viable cells with 0.006% neutral red solution. On the other hand, the cytotoxic activities against P388 and L1210 cells were determined by counting the number of viable cells.

The test system of data set [2] is L1210 leukemia.
Experimental: (§2) In vivo antitumor activities of BU-3862T and the diacetyl and dihydro derivatives were determined in tumor-bearing BDF1 or CDF1 mice. Male BDF1 mice were intraperitoneally inoculated with 0.5 ml of 10% melanotic melanoma B16 brei and female CDF1 mice were also intraperitoneally inoculated with 0.4 ml of diluted ascitic fluid containing 10^5 lymphoid leukemia L1210 cells or 10^6 lymphocytic leukemia P388 cells.
The test system of data set [3] is B16-F10 (murine melanoma) cells. Briefly: in vitro cytotoxicity against B16-F10 (neutral red staining, 72 hours). It is filed as cell-based. The conditions noted are these: Mus musculus. On the procedure: as §1
Data set [4] concerns P388 leukemia. Conditions: at the doses tested.
Experimental: as §2
Data set [5] deals with DNA synthesis in B16-F10 melanoma cells. The data set can be described thus: inhibition of DNA synthesis in cultured B16-F10 melanoma cells. It is filed as cell-based, murine.
In data set [6] the test system is protein synthesis in B16-F10 melanoma cells. The data set can be described thus: inhibition of protein synthesis in cultured B16-F10 melanoma cells. Type of data set: cell-based, murine.
Data set [7] deals with RNA synthesis in B16-F10 melanoma cells. Briefly: inhibition of RNA synthesis in cultured B16-F10 melanoma cells. It is filed as cell-based, murine. The conditions noted are these: Mus musculus, 14C-uridine incorporation, 4 hours + 60 min.
A short description of data set [8]: solubility. It is filed as physicochemical.
The test system of data set [9] is B16 melanoma. The conditions noted are these: for T/C: Table 6, QD × 9; for inhibitory activity against experimental animal tumor systems: e.g. B16 melanoma in mice; for antitumor efficacy against B16 melanoma, in words: ip; for minimum effective dose relative to the parent compound: versus BU-3862T.
Experimental: as §2
Data set [10] has as its system P388 (murine leukemia) cells. The data set can be described thus: in vitro cytotoxicity against P388 (viable cell count, 72 hours). Type of data set: cell-based. The conditions noted are these: Mus musculus; P388, 72 hours. On the procedure: as §1
Data set [11] relates to L1210 (murine leukemia) cells. The data set can be described thus: in vitro cytotoxicity against L1210 (viable cell count, 72 hours). Type of data set: cell-based. Conditions: Mus musculus; L1210, 72 hours. On the procedure: as §1
The subject of data set [12] is Moser (human colorectal carcinoma) cells. Briefly: in vitro cytotoxicity against Moser (neutral red staining, 72 hours). Type of data set: cell-based. How it is done: as §1
Data set [13] is described as follows: biological activity of BU-3862T derivatives.
Data set [14] relates to murine and human tumor cell lines. How it is done:
as §1

Setting [15] is: HCT-116, 72 hours, read-out: IC50.
Where [16] appears, read: B16-F10, 72 hours, read-out: IC50.
Setting [17] is: Moser, 72 hours, read-out: IC50.

In brackets after ≈: the same amount, converted by molar mass. Read-outs that look alike come from different tables or passages of the source.

On to `C=C(C)CC(NC(=O)[C@H](CO)NC(=O)CCCCC(C)C)C(=O)C1(CO)CO1` (some centres unmarked) [BU-3862T], for which the IC50 (usually the midpoint of a concentration-inhibition curve) in data set [1] (setting [15]) came out at 0.0097 µg/mL (≈ 0.0243 µM); in data set [3] (setting [16]) it was 0.0017 µg/mL (≈ 0.00427 µM); in [5] (Mus musculus, B16-F10, 3H-thymidine incorporation, 3.5 hours + 30 min) it was 0.1 µg/mL; in data set [6] (Mus musculus, B16-F10, 3H-leucine incorporation, 4 hours + 60 min), 0.06 µg/mL; in [7], 11 µg/mL; in data set [10], 0.031 µg/mL (≈ 0.0778 µM). In addition, the IC50 stood at 0.01 µg/mL (≈ 0.0251 µM) in data set [11] and 0.016 µg/mL (≈ 0.0402 µM) in data set [12] (setting [17]). In addition, the T/C (as a rule, the ratio of treated to control) in data set [2] (0.25 mg/kg/day ip, Q3D × 3) is reported as 119%; in data set [2] (1.0 mg/kg/day ip, Q3D × 3) it was 125%; in [2] (2.0 mg/kg/day ip, Q3D × 3) it was 144%; in data set [2] (4.0 mg/kg/day ip, Q3D × 3), “Tox”; in [9] (0.13 mg/kg/day ip) it was 123%; in data set [9] (0.25 mg/kg/day ip), 133%. Moreover, the T/C in data set [9] (0.5 mg/kg/day ip) is reported as 133%; in data set [9] (0.63 mg/kg/day (so in the source) ip), 113%; in data set [9] (1.0 mg/kg/day ip), 97%; in [9] (2.0 mg/kg/day ip), “Tox”. In data set [2] (L1210 leukemia, ip), the “maximum T/C value” was determined as 145%. The “antitumor activity against L1210 leukemia, in words” value in data set [2] (ip) was “moderate antitumor activity”. The “prolongation of lifespan in P388 leukemia-bearing mice” value in [4] is reported as “no significant prolongation of lifespan”. Further, in data set [5] (DNA versus RNA synthesis), the “potency on DNA synthesis relative to that on RNA synthesis in terms of IC50 value” is “over 100 times”. Also, the “potency on protein synthesis relative to that on RNA synthesis in terms of IC50 value” in data set [6] (protein versus RNA synthesis) was “over 100 times”. The solubility entry in [8] (in benzene and other organic solvents) was “practically insoluble”; in [8] (in dimethyl sulfoxide, dimethylformamide, methanol, ethanol, ethyl acetate and chloroform), “readily soluble”; in data set [8] (in water), “practically insoluble”. Further, the “potency (minimum effective dose) relative to mitomycin C” value in [9] (Q4D × 3, ip) is “the same as that of mitomycin C”. Moreover, in [9] (Q4D × 3 versus QD × 9), the “chemotherapeutic index (ratio of optimal dose to minimum effective dose), intermittent versus consecutive dosing” value is on record as “broader therapeutic range”. The “maximum T/C value, intermittent versus consecutive dosing” value in data set [9] (Q4D × 3 versus QD × 9) was “better antitumor activity”. Also, the “inhibitory activity against experimental animal tumor systems” value (shortened to “inhibitory activity”) in data set [9] is “exhibit inhibitory activity”. Besides, the “antitumor efficacy against B16 melanoma, in words” value (“antitumor efficacy” for short) in [9] is on record as “excellent therapeutic efficacy against B16 melanoma”.
Regarding `C=C(C)CC(NC(=O)[C@H](COC(C)=O)NC(=O)CCCCC(C)C)C(=O)C1(COC(C)=O)CO1` (some centres unmarked) [Diacetyl-BU-3862T], the concentration for half-maximal inhibition (IC50) was determined as 0.017 µg/mL (≈ 0.0352 µM) in [1] (setting [15]), 0.003 µg/mL (≈ 0.00622 µM) in data set [3] (setting [16]) and 0.044 µg/mL (≈ 0.0912 µM) in data set [12] (setting [17]). In data set [13], the “biological activity, in words” value was “retained the biological activity”. The “minimum effective dose relative to the parent compound” value in [9] (Q4D × 3, ip) was “approximately ten times less active than the parent compound”. Also, in data set [9], the “inhibitory activity” value is listed as “exhibit inhibitory activity”. The “antitumor efficacy” value in data set [9] was “significant anti-B16 melanoma activity”. Further, in data set [14], the “cytotoxic potency relative to BU-3862T” value is given as “approximately half those of BU-3862T”.
As to `CC(C)CCCCC(=O)N[C@@H](CO)C(=O)NC(CC(C)C)C(=O)C1(CO)CO1` (some centres unmarked) [Dihydro-BU-3862T], the IC50 in [1] (setting [15]) is 0.013 µg/mL (≈ 0.0325 µM); in data set [3] (setting [16]) it was 0.0032 µg/mL (≈ 0.00799 µM); in data set [12] (setting [17]), 0.038 µg/mL (≈ 0.0949 µM). In data set [13], the “biological activity, in words” value is “retained the biological activity”. Besides, in [9] (Q4D × 3, ip), the “minimum effective dose relative to the parent compound” value is given as “approximately ten times less active than the parent compound”. Further, in data set [9], the “inhibitory activity” value is listed as “exhibit inhibitory activity”. In addition, the “antitumor efficacy” value in data set [9] was “significant anti-B16 melanoma activity”. In addition, the “cytotoxic potency relative to BU-3862T” value in data set [14] is “approximately half those of BU-3862T”.
Turning to `CO[C@@]12[C@H](COC(N)=O)C3=C(C(=O)C(C)=C(N)C3=O)N1C[C@@H]1N[C@@H]12` [Mitomycin C, reference compound], the half-inhibitory concentration (IC50) in data set [1] (HCT-116, 72 h) is 0.8 µg/mL (≈ 2.39 µM); in data set [3] (B16-F10, 72 h), 0.5 µg/mL (≈ 1.5 µM); in data set [12] (72 h), 1.2 µg/mL (≈ 3.59 µM). In addition, the T/C is recorded as 125% in data set [2] (0.25 mg/kg/day ip, QD × 3); 131% in data set [2] (0.5 mg/kg/day ip, QD × 3); 138% in data set [2] (1.0 mg/kg/day ip, QD × 3); 163% in data set [2] (2.0 mg/kg/day ip, QD × 3).
In the case of `CC(C)CCCCC(=O)N[C@@H](CO)C(=O)NC(CC(C)C)C(=O)C(CO)CO` (some centres unmarked) [Tetrahydro-BU-3862T], the half-maximal inhibitory concentration (IC50) in data set [1] (setting [15]) is more than 1 µg/mL; in data set [3] (setting [16]) it was 0.53 µg/mL (≈ 1.32 µM); in data set [12] (setting [17]) it was more than 1 µg/mL. For the same compound, the “biological activity, in words” value in [13] was “devoid of the activity”. The “cytotoxic activity compared with BU-3862T, diacetyl and dihydro derivatives” value in [14] was “significantly less active than the above compounds”.
